{"source": "PubChem BioAssay AID2060330", "about": "(Molecular Pharmacology Branch, DTP, NCI, 2025)", "system": "LG0703-F948-PDC spheroids with HUVEC/MSC, viability", "test": "Anticancer human tumor LG0703-F948-PDC patient-derived lung adenocarcinoma cell line growth inhibition [IpAb]", "details": "for viability, T/C: stronger effect = lower value", "from_the_text": "Combinatorial screen of targeted agents with ipatasertib and abemaciclib in multi-cell type tumor spheroids\nA high-throughput screen of multi-cell type tumor spheroids was designed to identify active combinations of targeted small molecules and ipatasertib or abemaciclib. Complex spheroids include a stromal component modeled by human endothelial cells (HUVEC) and fibroblasts modeled by human mesenchymal stem cells (MSCs). The concentration ranges selected for each drug and investigational agent were based upon clinically achievable concentrations if the clinical Cmax of the agent was known.\nCompounds. The drugs and investigational agents: ipatasertib (NSC767898), abemaciclib(NSC768073), selumetinib (NSC741078), trametinib (758246), adavosertib (NSC754352), everolimus (NSC733504), sapanisertib (NSC764658), vemurafenib (NSC761431), venetoclax (NSC766270), copanlisib (NSC809693), apelisib (NSC765974), palbociblib (NSC758247), vemurafenib (NSC761431), dabrafenib (NSC764134), ravoxertinib (NSC781343), BMS-387032 (NSC767048), sotorasib (NSC818433), talazoparib (NSC767125) and afursertib (NSC778305), were obtained from the National Cancer Institute (NCI) Developmental Therapeutics Program Chemical Repository. The FDA-approved anticancer drug set is available from the NCI Developmental Therapeutics Program. […] The stock solutions were prepared in dimethyl sulfoxide (DMSO, Sigma-Aldrich, St. Louis, MO, cat. D2650) at 800-fold the tested concentration and stored at -70 degrees C prior to their use. All drugs and investigational agents were tested over a range starting from a high concentration at or near the clinical Cmax and decreasing in half-log increments. If the clinical Cmax for an agent had not been determined, the highest concentration tested was 10 microM.\nNCI60 Cell Culture. NCI60 cell lines were obtained from the NCI Developmental Therapeutics Program Tumor Repository. For each lot of cells, the Repository performed Applied Biosystems AmpFLSTR Identifiler testing with PCR amplification to confirm consistency with the published Identifier STR profile for each cell line. Cells were kept in continuous culture for no more than 20 passages. The optimal seeding densities for each of the cell lines at each time point assessed were determined prior to performing the concentration response studies. Briefly, the NCI60 human tumor lines were grown as monolayers in RPMI 1640 medium supplemented with 10% FBS and 2 mmol/L L-glutamine.\nAn additional 9 lines were from the NCI60 cell line panel including MDA-MB-231 breast carcinoma, MDA-MB-468 breast carcinoma, MCF7 breast carcinoma, Hs578T breast carcinoma, MALME-3M melanoma, SK-MEL-2 melanoma, SK-OV-3 ovarian carcinoma, DU-145 prostate carcinoma, PC-3 prostate carcinoma, all cell lines along with major genetic alterations are listed on Table 2. Pooled donor human umbilical vein endothelial cells (HUVEC, Lonza, cat. CC-2519) and human mesenchymal stem cells (hMSC, Lonza, cat. PT-2501) were purchased from Lonza (Walkersville, MD).\nPDMR cell lines were grown in complete medium (DC medium): Dulbecco's modified Eagle's medium (DMEM)/F12 supplemented with 5% fetal bovine serum (FBS), 2 mM L-glutamine, 100 U/mL penicillin and 100 µg/ml streptomycin, 0.4 µg/ml hydrocortisone, 10 ng/ml epidermal growth factor (EGF) recombinant human protein, 24 µg/mL adenine, and 0.1 mg/mL primocin. During culture from frozen stock vials, PDMR cells were cultured in the same medium containing 10 µM Y-27632 (see Table 3). The PDCs were cultured in complete DMEM/F12 media without 10 microM Y-27632 dihydrochloride for at least two passages prior to the screen. The pooled donor HUVEC and hMSC were cultured in endothelial cell growth medium 2 (PromoCell, Heidelberg, Germany, cat. C-22011) and mesenchymal stem cell growth medium 2 (PromoCell, cat. C-28009), respectively. For all experiments, HUVEC and hMSC were used at passages </=5.\n[…]", "note": "Several values for one entry are separate records, joined by “and”; a condition that tells them apart may be missing. Equal values may be shown once.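 Further: spheroids exposed to compounds for seven days before readout.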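 Wherever viability, T/C is given: T/C percent relative to DMSO vehicle wells set as 100% viability.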"}
{"smiles": "Cc1nc(NC(=O)N2CCCC2C(N)=O)sc1-c1ccnc(C(C)(C)C(F)(F)F)c1", "note": "(stereo not given)", "values": [{"measurement": "viability, T/C", "setting": "compound 0.0316 µM", "result": "93.3% and 92%"}, {"measurement": "viability, T/C", "setting": "compound 0.1 µM", "result": "85.5% and 87.4%"}, {"measurement": "viability, T/C", "setting": "compound 0.316 µM", "result": "77.1% and 72.5%"}, {"measurement": "viability, T/C", "setting": "compound 1 µM", "result": "53.9% and 63.8%"}, {"measurement": "viability, T/C", "setting": "compound 3.16 µM", "result": "28% and 30.2%"}, {"measurement": "viability, T/C", "setting": "compound 10 µM", "result": "3.02% and 2.66%"}, {"measurement": "IC50", "setting": "curve of compound", "result": "1.23 µM and 1.48 µM"}]}
{"smiles": "Cn1cnc2c(F)c(Nc3ccc(Br)cc3Cl)c(C(=O)NOCCO)cc21", "values": [{"measurement": "viability, T/C", "setting": "compound 0.00949 µM", "result": "85.5% and 87.7%"}, {"measurement": "viability, T/C", "setting": "compound 0.03 µM", "result": "64.7% and 68.2%"}, {"measurement": "viability, T/C", "setting": "compound 0.0949 µM", "result": "53.1% and 54.3%"}, {"measurement": "viability, T/C", "setting": "compound 0.3 µM", "result": "50.3% and 50.7%"}, {"measurement": "viability, T/C", "setting": "compound 0.949 µM", "result": "37.5% and 43.6%"}, {"measurement": "viability, T/C", "setting": "compound 3 µM", "result": "35.4% and 42.1%"}, {"measurement": "IC50", "setting": "curve of compound", "result": "0.166 µM and 0.234 µM"}]}
{"smiles": "Cn1ncc(Cl)c1-c1cc(C(=O)NC(CN)Cc2cccc(F)c2)sc1Cl", "note": "(stereo not given)", "values": [{"measurement": "viability, T/C", "setting": "compound 0.0316 µM", "result": "85.7% and 79%"}, {"measurement": "viability, T/C", "setting": "compound 0.1 µM", "result": "71.9% and 81.5%"}, {"measurement": "viability, T/C", "setting": "compound 0.316 µM", "result": "60.7% and 58.4%"}, {"measurement": "viability, T/C", "setting": "compound 1 µM", "result": "48% and 62.5%"}, {"measurement": "viability, T/C", "setting": "compound 3.16 µM", "result": "17.1% and 21.7%"}, {"measurement": "viability, T/C", "setting": "compound 10 µM", "result": 0.19, "unit": "%"}, {"measurement": "IC50", "setting": "curve of compound", "result": "0.65 µM and 1.17 µM"}]}
{"smiles": "Cn1nccc1Nc1nccc(-c2ccn(C(CO)c3ccc(Cl)c(F)c3)c(=O)c2)n1", "note": "(stereo not given)", "values": [{"measurement": "viability, T/C", "setting": "compound 0.0316 µM", "result": "93.2% and 90.2%"}, {"measurement": "viability, T/C", "setting": "compound 0.1 µM", "result": "90.3% and 80.3%"}, {"measurement": "viability, T/C", "setting": "compound 0.316 µM", "result": "71.5% and 79%"}, {"measurement": "viability, T/C", "setting": "compound 1 µM", "result": "77.8% and 60.3%"}, {"measurement": "viability, T/C", "setting": "compound 3.16 µM", "result": "85.2% and 81%"}, {"measurement": "viability, T/C", "setting": "compound 10 µM", "result": "52.8% and 67.5%"}, {"measurement": "IC50", "setting": "curve of compound", "result": "> 10", "unit": "µM"}]}
{"smiles": "Cn1ncnc1[C@H]1c2n[nH]c(=O)c3cc(F)cc(c23)N[C@@H]1c1ccc(F)cc1", "values": [{"measurement": "viability, T/C", "setting": "compound 0.000316 µM", "result": "108% and 102%"}, {"measurement": "viability, T/C", "setting": "compound 0.001 µM", "result": "100% and 95.7%"}, {"measurement": "viability, T/C", "setting": "compound 0.00316 µM", "result": "96.7% and 99%"}, {"measurement": "viability, T/C", "setting": "compound 0.01 µM", "result": "102% and 101%"}, {"measurement": "viability, T/C", "setting": "compound 0.0316 µM", "result": "87.6% and 92.6%"}, {"measurement": "viability, T/C", "setting": "compound 0.1 µM", "result": "83.5% and 84.1%"}, {"measurement": "IC50", "setting": "curve of compound", "result": "> 0.1", "unit": "µM"}]}
{"smiles": "Cn1cnc2c(F)c(Nc3ccc(Br)cc3Cl)c(C(=O)NOCCO)cc21", "note": "+ CC(C)NCC(C(=O)N1CCN(c2ncnc3c2C(C)CC3O)CC1)c1ccc(Cl)cc1", "values": [{"measurement": "IC50", "setting": "curve of first compound, second compound 0.1 µM", "result": 0.0124, "unit": "µM"}, {"measurement": "IC50", "setting": "curve of first compound, second compound 0.316 µM", "result": "< 0.00949", "unit": "µM"}, {"measurement": "IC50", "setting": "curve of first compound, second compound 1 µM", "result": "< 0.00949", "unit": "µM"}, {"measurement": "IC50", "setting": "curve of first compound, second compound 3.16 µM", "result": "< 0.00949", "unit": "µM"}, {"measurement": "IC50", "setting": "curve of first compound, second compound 10 µM", "result": "< 0.00949", "unit": "µM"}, {"measurement": "viability, T/C", "setting": "second compound 0.1 µM, first compound 0.00949 µM", "result": 55, "unit": "%"}, {"measurement": "viability, T/C", "setting": "second compound 0.1 µM, first compound 0.03 µM", "result": 35.1, "unit": "%"}, {"measurement": "viability, T/C", "setting": "second compound 0.1 µM, first compound 0.0949 µM", "result": 27.4, "unit": "%"}, {"measurement": "viability, T/C", "setting": "second compound 0.1 µM, first compound 0.3 µM", "result": 20.1, "unit": "%"}, {"measurement": "viability, T/C", "setting": "second compound 0.1 µM, first compound 0.949 µM", "result": 18.3, "unit": "%"}, {"measurement": "viability, T/C", "setting": "second compound 0.1 µM, first compound 3 µM", "result": 14, "unit": "%"}, {"measurement": "viability, T/C", "setting": "second compound 0.316 µM, first compound 0.00949 µM", "result": 36.3, "unit": "%"}, {"measurement": "viability, T/C", "setting": "second compound 0.316 µM, first compound 0.03 µM", "result": 19.5, "unit": "%"}, {"measurement": "viability, T/C", "setting": "second compound 0.316 µM, first compound 0.0949 µM", "result": 14.1, "unit": "%"}, {"measurement": "viability, T/C", "setting": "second compound 0.316 µM, first compound 0.3 µM", "result": 7.81, "unit": "%"}, {"measurement": "viability, T/C", "setting": "second compound 0.316 µM, first compound 0.949 µM", "result": 7.98, "unit": "%"}, {"measurement": "viability, T/C", "setting": "second compound 0.316 µM, first compound 3 µM", "result": 3.28, "unit": "%"}, {"measurement": "viability, T/C", "setting": "second compound 1 µM, first compound 0.00949 µM", "result": 21.6, "unit": "%"}, {"measurement": "viability, T/C", "setting": "second compound 1 µM, first compound 0.03 µM", "result": 12.9, "unit": "%"}, {"measurement": "viability, T/C", "setting": "second compound 1 µM, first compound 0.0949 µM", "result": 5.36, "unit": "%"}, {"measurement": "viability, T/C", "setting": "second compound 1 µM, first compound 0.3 µM", "result": 3.84, "unit": "%"}, {"measurement": "viability, T/C", "setting": "second compound 1 µM, first compound 0.949 µM", "result": 2.91, "unit": "%"}, {"measurement": "viability, T/C", "setting": "second compound 1 µM, first compound 3 µM", "result": 1.32, "unit": "%"}, {"measurement": "viability, T/C", "setting": "second compound 3.16 µM, first compound 0.00949 µM", "result": 13.7, "unit": "%"}, {"measurement": "viability, T/C", "setting": "second compound 3.16 µM, first compound 0.03 µM", "result": 6.24, "unit": "%"}, {"measurement": "viability, T/C", "setting": "second compound 3.16 µM, first compound 0.0949 µM", "result": 3.66, "unit": "%"}, {"measurement": "viability, T/C", "setting": "second compound 3.16 µM, first compound 0.3 µM", "result": 3.22, "unit": "%"}, {"measurement": "viability, T/C", "setting": "second compound 3.16 µM, first compound 0.949 µM", "result": 2.57, "unit": "%"}, {"measurement": "viability, T/C", "setting": "second compound 3.16 µM, first compound 3 µM", "result": 3.42, "unit": "%"}, {"measurement": "viability, T/C", "setting": "second compound 10 µM, first compound 0.00949 µM", "result": 7.41, "unit": "%"}, {"measurement": "viability, T/C", "setting": "second compound 10 µM, first compound 0.03 µM", "result": 4.11, "unit": "%"}, {"measurement": "viability, T/C", "setting": "second compound 10 µM, first compound 0.0949 µM", "result": 1.36, "unit": "%"}, {"measurement": "viability, T/C", "setting": "second compound 10 µM, first compound 0.3 µM", "result": 2.06, "unit": "%"}, {"measurement": "viability, T/C", "setting": "second compound 10 µM, first compound 0.949 µM", "result": 1, "unit": "%"}, {"measurement": "viability, T/C", "setting": "second compound 10 µM, first compound 3 µM", "result": 0.28, "unit": "%"}]}
